Legend:
[1] = test system: luciferase-tagged MOLM13 cells; assay: In vivo MOLM13 xenograft study, efficacy; settings: MOLM13-engrafted NCG mice; KPT-9274 100 mg/kg daily, AR-42 20 mg/kg every another day, oral gavage
Experimental: NCG mice were engrafted with luciferase-tagged MOLM13 cells and treated with vehicle, 20 mg/kg AR-42, 100 mg/kg KPT-9274 and AR-42/KPT-9274 in combination.
Male NOD-Prkdc^em26cd52Il2rg^em26cd22/NjuCrl (NCG) mice (RRID:IMSR_CRL:572) (aged 6-8 weeks) were obtained from Charles River Laboratory. Mice were group-housed under conditions of constant photoperiod (12-hour light/12-hour dark), temperature, and humidity with adlibitum access to water and irradiated standard pelleted chow. 104 luciferase-tagged MOLM13 cells were injected via tail vein into NCG mice. On day 5 post-engraftment, mice were randomized to receive placebo (vehicle; Karyopharm Therapeutics) once daily, 100 mg/kg of KPT-9274 (Karyopharm Therapeutics) once daily, 20 mg/kg AR-42 every another day and the combination of KPT-9274 and AR-42 via oral gavage. Overall survival was the primary end point for the majority of the mice. A separate cohort of mice per group was used to monitor leukemic progression using IVIS imaging. Mice were monitored by animal technicians who were blinded to the treatment groups and determined when mice met early removal criteria (20% weight loss, lethargy, hunching, and poor body condition). Mice were euthanized by CO2 inhalation.
To determine the clinical relevance of the drug combination, the efficacy of co-treatment of AR-42 and KPT-9274 was tested in the MOLM13 xenograft model. […]

[2] = test system: NHEJ activity in EJDR-reporter-stable U2OS cells; assay: EJDR reporter assay, NHEJ DsRed; type: cell-based
Experimental: (§1) EJDR reporter assay. The EJDR assay was described previously (20). EJDR reporter cells were plated at 5×10^5 cells per well in 10% FBS and RPM11640. After drug treatments, cells were grown in 10% Tet-free FBS (100-800; Gemini) and RPM11640. Incorporated I-Sce1 was induced with Shield1 (632189; Clontech) and triamcinolone (TA) (T6510; Sigma Aldrich) ligands for 24 hours. NHEJ and HR repair activities were assessed 48 hours post induction by quantification of DsRed- and GFP-positive cells on Cytomics FC 500 Flow Cytometer (Beckman Coulter, Brea, CA).
(§2) It was unclear whether the potent ability of HDAC inhibitor to induce apoptosis of AML cells in combination with NAMPT inhibition was due to the loss of HR or NHEJ activity alone or both together. Accordingly, HR and NHEJ activities in AML cells exposed to these treatments were examined using the EJDR reporter system (FIG. 6B). EJDR-reporter-stable U2OS cells were treated with vehicle, single agents, or drug combination before being incubated with ligands, TA and Shield 1. […] The expression of D-NHEJ pathway factors, Ku70 and DNA-PKcs, and ATM pathway mediators, CHEK1 and CHEK2, were abolished by AR-42 and KPT-9274 co-treatment. […] Therefore, suppression of HDAC8 can attenuate HR and D-NHEJ gene expressions, resulting in NAMPT inhibitor sensitivity.

[3] = test system: HR activity in EJDR-reporter-stable U2OS cells; assay: EJDR reporter assay, HR-GFP; type: cell-based; settings: ISceI-induced
Experimental: as §1, §2

IDH2-WT TF-1 cells = assay: Phospho-H2A.X (pS139) flow cytometry; type: cell-based; settings: IDH2-WT TF-1, 48 hours, 0.8 μM AR-42, 0.1 μM KPT-9274
Experimental: (§3) Thereafter, cells were fixed, permeabilized and stained with BV421 mouse anti-H2A.X (pS139) (Clone N1-431). Stained cells were analyzed by flow cytometry. Results are shown as mean±SEM of duplicates. *p<0.05. N.S.: not significant. […] Results are shown as mean±SEM of duplicates. *p<0.05. […] MOLM13 cells were treated with vehicle control, 0.4 μM or 0.8 μM AR-42 alone, 0.1 μM or 0.25 μM KPT-2974 alone and drug combination for 24 hours before being subject to Western blotting analysis of HR, NHEJ and ATM markers. GAPDH served as loading control. Results are representative of two independent experiments. In the FIG. the treatment concentrations, protein detected in the given Western blot, and molecular weight of the protein detected are as shown in the figure. […] Scrambled or shHDAC8-transduced MOLM13 cells were treated with vehicle, 0.1 μM or 0.25 μM KPT-2974 before being subject to immunoblotting analysis of DNA repair targets. GAPDH serves as loading control. Results are representative of two independent experiments. In the FIG. the treatment concentrations, protein detected in the given Western blot, and molecular weight of the protein detected are as shown in the figure. […] PAPR1 was immunoprecipitated and mono-ADP-ribosylation was detected by western blotting. Results are representative of two independent experiments. […]

MOLM13 cells = assay: Western blotting of HR, NHEJ and ATM markers; type: cell-based, human
Experimental: as §3

How did the median survival time [1] turn out when `Nc1ccc(/C=C/C(=O)NCc2cc3cc(-c4ccc(C(=O)N5CCC(F)(F)CC5)cc4)cc(-c4ccc(F)cc4)c3o2)cn1` [KPT-9274, (E)-3-(6-aminopyridin-3-yl)-N-[[5-[4-(4,4-difluoropiperidine-1-carbonyl)phenyl]-7-(4-fluorophenyl)-1-benzofuran-2-yl]methyl]prop-2-enamide] was run?
The median survival time was 27 days.

And the “NHEJ activity (percentage of DsRed+ cells)” value [2]?
Its value is “more robust reduction”.

What about the “HR activity (HR-GFP reporter)” value [3] of the same molecule?
Its value is “did not impact HR activity”.

What about the “fluorescence intensity of phospho-H2A.X staining” value (IDH2-WT TF-1 cells) of the same molecule?
The value was “slightly increased”.

And the “abundance of D-NHEJ and ATM pathway mediators” value (MOLM13 cells; shHDAC8-transduced MOLM13, 0.1 μM or 0.25 μM KPT-9274)?
The value was “synergistically downregulated”.

How did the median survival time [1] turn out when `CC(C)[C@H](C(=O)Nc1ccc(C(=O)NO)cc1)c1ccccc1` [AR-42, (S)—N-Hydroxy-4-(3-methyl-2-phenylbutanamido)benzamide] was run?
The median survival time was 29 days.

And the “NHEJ activity (percentage of DsRed+ cells)” value [2]?
The value was “NHEJ deficiency”.

And the “HR activity (HR-GFP reporter)” value [3]?
Its value is “nearly completely abolished”.

What about the “fluorescence intensity of phospho-H2A.X staining” value (IDH2-WT TF-1 cells) of the same molecule?
The value was “slightly increased”.

What about the “levels of HR components CtIP, Rad51, phosphorylated BRCA1 and phosphorylated ATM” value (MOLM13 cells; 0.4 μM and 0.8 μM AR-42, monotherapy or with KPT-9274, 24 hours) of the same molecule?
Its value is “significantly reduced”.

From patent US20260069581A1, “METHODS AND COMPOSITIONS FOR CANCER THERAPY” (OHIO STATE INNOVATION FOUNDATION, priority 2020, published 2026)
